Columns and labels:
[1] = Accelerated stability testing (HPLC assay and purity); format: physicochemical; conditions: for Assay (%): assay criterion 95%-105%
Description: The stability of Phosphate Polymorphic Form and Free Base Polymorphic Form A were evaluated under accelerated conditions.
Appropriately 2 mg of compounds were accurately weighed into a glass vial, then added diluents (ACN/water, 50/50) and sonicated for 2 minutes to dilute the target concentration of 0.2 mg/mL. The solution was equilibrated to room temperature and then the purity of the compounds was determined by HPLC.

[2] = Approximate solubility of TPA023B Phosphate in solvents (stepwise solvent addition); format: physicochemical; conditions: thermodynamic from solid
Description: The total amount of solvent was recorded to calculate the approximate solubility in these solvents.

[3] = Canine pharmacokinetics; format: in vivo, Beagle dogs; conditions: male, beagle, plasma, dog, mean
Description: To evaluate the pharmacokinetics (PK) Phosphate Polymorphic Form A, suspensions or solutions were dosed by either oral gavage (0.5% methyl cellulose) or IV (60% PEG400/40% saline) in normal, healthy, male Beagle dogs with serial blood collection focused on the first 48 hours of exposure. Dogs were dosed with vehicle or test compounds at 1 mg/kg (IV) or 2 mg/kg (PO). Approximately 0.5 mL blood was collected at each time point. All blood samples were collected from a peripheral vein. Blood was collected into commercially available tubes (Jiangsu Kangjian medical supplies co., LTD) containing Potassium (K2) EDTA*2H2O and placed on wet ice until processed for plasma. Samples were centrifuged (3,000×g for 10 minutes at 2 to 8° C.) within one hour of collection. The extracts were analyzed for compound concentration by LC/MS/MS. Data were analyzed with Phoenix WinNonlin 6.3 using the IV-Noncompartmental model 201 (IV bolus input) and PO-Noncompartmental model 200 (extravascular input) methods.

[4] = Hygroscopicity by dynamic vapor sorption (DVS); format: physicochemical
Description: The hygroscopicity of Phosphate Polymorph Form A was measured by Dynamic vapor sorption (DVS). […] After DVS, XRPD confirmed that the crystalline form was retained (see FIG. 19).

[5] = Pharmacokinetics in rats; format: in vivo, Sprague-dawley rats; conditions: rat, mean
Description: To evaluate the pharmacokinetics (PK) of Phosphate Polymorphic Form A, suspensions or solutions were dosed by either oral gavage (0.5% methyl cellulose) or IV (60% PEG400/40% saline) in normal, healthy, male Sprague-dawley rats with serial blood collection focused on the first 48 hours of exposure. Rats were dosed with vehicle or test compounds at 1 mg/kg (IV) or 2 mg/kg (PO). Approximately 0.2 mL blood was collected at each time point. All blood samples were collected jugular vein puncture. All blood samples were transferred into plastic microcentrifuge tubes containing 5 μL of EDTA-K2 as anti-coagulant or pre-chilled commercial EDTA-K2 tubes and placed on wet ice until centrifugation. Harvested blood samples were centrifuged within 30 min of collection at 7,000 rpm for 10 minutes. The extracts were analyzed for compound concentration by LC/MS/MS. Data were analyzed with Phoenix WinNonlin 6.3 using the IV-Noncompartmental model 201 (IV bolus input) and PO-Noncompartmental model 200 (extravascular input) methods.

[6] = Intrinsic dissolution rate in SGF; format: physicochemical; conditions: 37° C., 100 rpm, linear scope within 2 to 120 min
Description: About 100 mg of Free Base Polymorphic Form A or Phosphate Polymorphic Form A was weighed into the intrinsic dissolution apparatus and the sample compressed for 1 minute with a compression force of ˜4 MPa to form a compacted pellet within the stainless-steel die. All loose powder was removed from the surface of the die. The intrinsic dissolution shaft was connected with the stainless-steel die and tightened so only one surface of the pellet was exposed (surface area=0.496 cm^2). The shaft in the spindle was adjusted to ensure the exposed surface of the compacted tablet was ˜3.8 cm from the bottom of the vessel when lowered. The temperature of chamber water was set at 37° C.±0.5° C., the shaft rotation at 100 rpm and the sampling time points at 2, 5, 10, 15, 30, 45, 60, 120 min. SGF was used as dissolution medium (900 mL). At each time point, solution samples were filtered, and the supernatant was analyzed by HPLC-UV.

[7] = male, Sprague-Dawley, plasma, IV 1 mg/kg
[8] = male, Sprague-Dawley, plasma, PO 2 mg/kg

With CC(C)(O)c1cnn2c(-c3ccc(F)c(-c4c(F)cccc4C#N)c3)cnc2n1.O=P(O)(O)O [Phosphate Polymorphic Form A, 2′,6-difluoro-5′-[3-(1-hydroxy-1-methylethyl)-imidazo[1,2-b][1,2,4]triazin-7-yl]biphenyl-2-carbonitrile] the “Purity (%)” value ([1]; 40° C./75% RH (open), 1 week) was 99.02%, the “Assay (%)” value ([1]; 40° C./75% RH (open), 1 week) was 97.12% and the “Purity (%)” value ([1]; 80° C. (open), 1 week) was 98.94%. The “Assay (%)” value ([1]; 80° C. (open), 1 week) was 95.99%, the “Purity (%)” value ([1]; Initial) was 98.91% and the “Assay (%)” value ([1]; Initial) was 104.60%. The “Purity (%)” value ([1]; Light, ~50 h) was 97.55%, the “Assay (%)” value ([1]; Light, ~50 h) was 95.25% and the solubility ([2]; aqueous with cosolvent or surfactant or cyclodextrin, Acetone/H2O (1/1, v/v), 50° C.) was 2000 to 10000 µg/mL. It also gave a solubility ([2]; aqueous with cosolvent or surfactant or cyclodextrin, Acetone/H2O (1/1, v/v), RT) of less than 2000 µg/mL, a solubility ([2]; aqueous with cosolvent or surfactant or cyclodextrin, EtOH/H2O (1/1, v/v), 50° C.) of less than 2000 µg/mL and a solubility ([2]; aqueous with cosolvent or surfactant or cyclodextrin, EtOH/H2O (1/1, v/v), RT) of less than 2000 µg/mL. For the same compound, the solubility ([2]; organic solvent or mixture, 1,4-Dioxane, 50° C.) was 20000 to 25000 µg/mL, the solubility ([2]; organic solvent or mixture, 1,4-Dioxane, RT) was 20000 to 25000 µg/mL and the solubility ([2]; organic solvent or mixture, Acetone, 50° C.) was less than 10000 µg/mL. It also gave a solubility ([2]; organic solvent or mixture, Acetone, RT) of 6000 to 10000 µg/mL, a solubility ([2]; organic solvent or mixture, Acetonitrile (ACN), 50° C.) of 2000 to 10000 µg/mL and a solubility ([2]; organic solvent or mixture, Acetonitrile (ACN), RT) of less than 2000 µg/mL. For the same compound, the solubility ([2]; organic solvent or mixture, DCM, 50° C.) was 10000 to 50000 µg/mL, the solubility ([2]; organic solvent or mixture, DCM, RT) was 8000 to 10000 µg/mL and the solubility ([2]; organic solvent or mixture, DMF, RT) was greater than 100000 µg/mL. It also gave a solubility ([2]; organic solvent or mixture, DMSO, RT) greater than 100000 µg/mL, a solubility ([2]; organic solvent or mixture, EtOAc, 50° C.) of less than 2000 µg/mL and a solubility ([2]; organic solvent or mixture, EtOAc, RT) of less than 2000 µg/mL. It also gave a solubility ([2]; organic solvent or mixture, Ethanol, 50° C.) of 10000 to 50000 µg/mL, a solubility ([2]; organic solvent or mixture, Ethanol, RT) of less than 8000 µg/mL and a solubility ([2]; organic solvent or mixture, Heptane, 50° C.) of less than 2000 µg/mL. For the same compound, the solubility ([2]; organic solvent or mixture, Heptane, RT) was less than 2000 µg/mL, the solubility ([2]; organic solvent or mixture, Isopropanol, 50° C.) was 10000 to 50000 µg/mL and the solubility ([2]; organic solvent or mixture, Isopropanol, RT) was less than 8000 µg/mL. The solubility ([2]; organic solvent or mixture, MEK, 50° C.) was less than 10000 µg/mL, the solubility ([2]; organic solvent or mixture, MEK, RT) was 2000 to 4000 µg/mL and the solubility ([2]; organic solvent or mixture, MTBE, 50° C.) was less than 2000 µg/mL. It also gave a solubility ([2]; organic solvent or mixture, MTBE, RT) of less than 2000 µg/mL, a solubility ([2]; organic solvent or mixture, Methanol, 50° C.) of 10000 to 50000 µg/mL and a solubility ([2]; organic solvent or mixture, Methanol, RT) of 8000 to 10000 µg/mL. For the same compound, the solubility ([2]; organic solvent or mixture, THF, 50° C.) was less than 50000 µg/mL, the solubility ([2]; organic solvent or mixture, THF, RT) was 20000 to 50000 µg/mL and the solubility ([2]; organic solvent or mixture, Toluene, 50° C.) was less than 2000 µg/mL. It also gave a solubility ([2]; organic solvent or mixture, Toluene, RT) of less than 2000 µg/mL, a solubility ([2]; water, H2O, 50° C.) of less than 2000 µg/mL and a solubility ([2]; water, H2O, RT) of less than 2000 µg/mL. It also gave an AUC(0-inf) ([3]; IV 1 mg/kg) of 9170 ng·h/mL, an AUC(0-t) ([3]; IV 1 mg/kg) of 7850 ng·h/mL and a clearance ([3]; IV 1 mg/kg) of 2.52 mL/min/kg. For the same compound, the half-life ([3]; IV 1 mg/kg) was 768 min, the Vd ([3]; IV 1 mg/kg, read-out: Vdss) was 1.93 L/kg and the AUC(0-inf) ([3]; PO 2 mg/kg) was 13900 ng·h/mL. The AUC(0-t) ([3]; PO 2 mg/kg) was 11700 ng·h/mL, the Cmax ([3]; PO 2 mg/kg) was 649 ng/mL and the Tmax ([3]; PO 2 mg/kg) was 3.33 h. The bioavailability ([3]; PO 2 mg/kg) was 74.7%, the half-life ([3]; PO 2 mg/kg) was 732 min and the “reversible mass increase (hygroscopicity)” value [4] was “about 1.08%”. The AUC(0-inf) [5, 7] was 12100 ng·h/mL, the AUC(0-t) [5, 7] was 11300 ng·h/mL and the clearance [5, 7] was 1.41 mL/min/kg. For the same compound, the half-life [5, 7] was 744 min, the Vd ([5]; male, Sprague-Dawley, plasma, IV 1 mg/kg, read-out: Vdss) was 1.49 L/kg and the AUC(0-inf) [5, 8] was 16000 ng·h/mL. It also gave an AUC(0-t) [5, 8] of 15000 ng·h/mL, a Cmax [5, 8] of 794 ng/mL and a Tmax [5, 8] of 7 h. It also gave a bioavailability [5, 8] of 66.1%, a half-life [5, 8] of 666 min and an AUCExtra ([5]; PO 2 mg/kg) of 6.25%. For the same compound, the intrinsic dissolution rate [6] was 0.184 mg cm^−2 min^−1.

— patent US11542263B2 (NeuroCycle Therapeutics, Inc., priority 2018, dated 2023)
